# Measured values published in patent US20090197955A1, “METHODS OF IMPROVING DHA DEPOSITION AND RELATED FUNCTION AND/OR DEVELOPMENT” (Monsanto Company, priority 2008, published 2009).
# Experiment: Fatty acid composition of pig tissues (ham, loin, belly, skin) after feeding SDA ethyl ester diets, 35 day study
# Assay type: in vivo, pigs
# Settings: 35 days
# Protocol: A 35 day study was conducted to determine whether pigs fed a diet containing SDA could enhance tissues with improved fatty acid profiles including increased levels of SDA, EPA, and DHA.
# Four test diets (Treatment 2, 3, 4, and 5) with SDA ethyl ester substituted for corn oil to provide 0.2, 0.4, 0.6 and 0.8% (w/w SDA active ingredient, as-is basis) were fed ad libitum to one pen of four pigs throughout the 35-day test period Table 4). All diets were fed in meal form. Treatment 6 was fed the same diet as Treatment 5, but for a duration of only 21 days.
# All pigs were individually weighed at initiation of the acclimation and test period, and immediately prior to slaughter. Feed consumption per pen was recorded. Upon completion of the feeding period, pigs were slaughtered for tissue collection and carcass evaluation. Pigs were slaughtered using standard industry practices (electrical stunning, exsanguinations, scalding, dehairing and evisceration). Live weights prior to slaughter and hot carcass weights were recorded. The left side of each carcass was fabricated and samples were obtained from the loin (longissimus muscle), ham (semimembranosus muscle) and belly (a section from the center of the belly) for sensory evaluation, fatty acid, and proximate analysis. Prior to removing the sample for sensory and fatty and proximate analysis from the belly the firmness of the belly was evaluated using a flop test. At 24 hr postmortem fat thickness (10th rib), loin eye area (10th rib), visual color, firmness and marbling, Minolta color (L*a*b*), pH, and drip loss were measured.
# In order to evaluate the fatty acid composition of pig tissues (loin, ham, skin, and belly), samples were stored at −80° C. until evaluation. After thawing, ˜22 g of fresh pig tissue was chopped into small pieces and thoroughly mixed before 10 g was sub sampled and lyophilized. Lyophilized samples were ground in 30 ml Sarstedt tubes with two ball bearings using a Mega Grinder. Ground samples (loin and ham: 50 mg; skin: 100 mg; belly: 150 mg; diet: 500 mg) were directly methylated with sulfuric acid in methanol (loin and ham: 1 mL; skin: 3 mL; belly: 10 mL; diet: 1.5 mL) sealed in the presence of butylated hydroxytoluene (50 mg BHT in 100 ml reagent) in reflux conditions of 90° C. Resultant fatty acid methyl esters (FAME's) were separated by capillary gas chromatography (GC) and detected by flame ionization detector (FID). The column used was a Supelco Omegawax 250 capillary column with dimensions of 30 m×0.25 mm×0.25 μm film thickness. The run time was 32 minutes. Peaks were identified based on their relative retention time compared to a FAME reference mixture. Quantification was achieved by using an internal standard (c15:0 triacylglyceride (TAG) for pig tissue samples and c17:0 TAG for diet samples). Results are reported as FA g/100 g fat with theoretical response correction.
# For Table 6 below, each value represents g/100 g total fatty acids a mean of 4 samples (1 sample from each of 4 pigs) per treatment.
structure (smiles),measurement,setting,value
"CC/C=C\C/C=C\C/C=C\C/C=C\CCCCC(=O)O [SDA, stearidonic acid]","24:1 n-9, ham",0.4% SDA feed,0.05 g FA per 100 g fat
same,"Total PUFA, ham",0.4% SDA feed,13.34 g FA per 100 g fat
same,"Total monoenes, ham",0.4% SDA feed,48.71 g FA per 100 g fat
same,"Total n-3, ham",0.4% SDA feed,1.23 g FA per 100 g fat
same,"Total n-6, ham",0.4% SDA feed,12.11 g FA per 100 g fat
same,"Total saturates, ham",0.4% SDA feed,33.55 g FA per 100 g fat
same,"n-6/n-3, ham",0.4% SDA feed,9.85
same,"12:0, ham",0.6% SDA feed,0.06 g FA per 100 g fat
same,"14:0, ham",0.6% SDA feed,1.05 g FA per 100 g fat
same,"16:0, ham",0.6% SDA feed,21.49 g FA per 100 g fat
same,"16:1 n-7, ham",0.6% SDA feed,3.03 g FA per 100 g fat
same,"16:1 n-9, ham",0.6% SDA feed,0.26 g FA per 100 g fat
same,"18:0, ham",0.6% SDA feed,11.47 g FA per 100 g fat
same,"18:1 n-7, ham",0.6% SDA feed,4.08 g FA per 100 g fat
same,"18:1 n-9, ham",0.6% SDA feed,37.64 g FA per 100 g fat
same,"18:2 n-6 (LA), ham",0.6% SDA feed,9.92 g FA per 100 g fat
same,"18:3 n-3 (ALA), ham",0.6% SDA feed,0.22 g FA per 100 g fat
same,"18:3 n-6 (GLA), ham",0.6% SDA feed,0.14 g FA per 100 g fat
same,"18:4 n-3 (SDA), ham",0.6% SDA feed,0.16 g FA per 100 g fat
same,"20:0, ham",0.6% SDA feed,0.16 g FA per 100 g fat
same,"20:1 n-7, ham",0.6% SDA feed,0.04 g FA per 100 g fat
same,"20:1 n-9, ham",0.6% SDA feed,0.59 g FA per 100 g fat
same,"20:1 n-11, ham",0.6% SDA feed,0.03 g FA per 100 g fat
same,"20:2 n-6, ham",0.6% SDA feed,0.28 g FA per 100 g fat
same,"20:3 n-3, ham",0.6% SDA feed,0.04 g FA per 100 g fat
same,"20:3 n-6 (DGLA), ham",0.6% SDA feed,0.43 g FA per 100 g fat
same,"20:4 n-3 (ETA), ham",0.6% SDA feed,0.26 g FA per 100 g fat
same,"20:4 n-6 (AA), ham",0.6% SDA feed,2.60 g FA per 100 g fat
same,"20:5 n-3 (EPA), ham",0.6% SDA feed,0.54 g FA per 100 g fat
same,"22:0, ham",0.6% SDA feed,0.07 g FA per 100 g fat
same,"22:1 n-9, ham",0.6% SDA feed,0.00 g FA per 100 g fat
same,"22:1 n-11, ham",0.6% SDA feed,0.00 g FA per 100 g fat
same,"22:1 n-13, ham",0.6% SDA feed,0.00 g FA per 100 g fat
same,"22:2 n-7, ham",0.6% SDA feed,0.00 g FA per 100 g fat
same,"22:3 n-6, ham",0.6% SDA feed,0.24 g FA per 100 g fat
same,"22:5 n-3 (DPA), ham",0.6% SDA feed,0.67 g FA per 100 g fat
same,"22:6 n-3 (DHA), ham",0.6% SDA feed,0.10 g FA per 100 g fat
same,"24:1 n-9, ham",0.6% SDA feed,0.06 g FA per 100 g fat
same,"Total PUFA, ham",0.6% SDA feed,15.59 g FA per 100 g fat
same,"Total monoenes, ham",0.6% SDA feed,45.72 g FA per 100 g fat
same,"Total n-3, ham",0.6% SDA feed,1.99 g FA per 100 g fat
same,"Total n-6, ham",0.6% SDA feed,13.60 g FA per 100 g fat
same,"Total saturates, ham",0.6% SDA feed,34.30 g FA per 100 g fat
same,"n-6/n-3, ham",0.6% SDA feed,6.83
same,"12:0, ham",0.8% SDA feed,0.05 g FA per 100 g fat
same,"14:0, ham",0.8% SDA feed,0.96 g FA per 100 g fat
same,"16:0, ham",0.8% SDA feed,20.70 g FA per 100 g fat
same,"16:1 n-7, ham",0.8% SDA feed,2.90 g FA per 100 g fat
same,"16:1 n-9, ham",0.8% SDA feed,0.53 g FA per 100 g fat
same,"18:0, ham",0.8% SDA feed,11.25 g FA per 100 g fat
same,"18:1 n-7, ham",0.8% SDA feed,4.27 g FA per 100 g fat
same,"18:1 n-9, ham",0.8% SDA feed,35.19 g FA per 100 g fat
same,"18:2 n-6 (LA), ham",0.8% SDA feed,11.90 g FA per 100 g fat
same,"18:3 n-3 (ALA), ham",0.8% SDA feed,0.25 g FA per 100 g fat
same,"18:3 n-6 (GLA), ham",0.8% SDA feed,0.21 g FA per 100 g fat
same,"18:4 n-3 (SDA), ham",0.8% SDA feed,0.24 g FA per 100 g fat
same,"20:0, ham",0.8% SDA feed,0.13 g FA per 100 g fat
same,"20:1 n-7, ham",0.8% SDA feed,0.04 g FA per 100 g fat
same,"20:1 n-9, ham",0.8% SDA feed,0.52 g FA per 100 g fat
same,"20:1 n-11, ham",0.8% SDA feed,0.03 g FA per 100 g fat
same,"20:2 n-6, ham",0.8% SDA feed,0.27 g FA per 100 g fat
same,"20:3 n-3, ham",0.8% SDA feed,0.03 g FA per 100 g fat
same,"20:3 n-6 (DGLA), ham",0.8% SDA feed,0.50 g FA per 100 g fat
same,"20:4 n-3 (ETA), ham",0.8% SDA feed,0.29 g FA per 100 g fat
same,"20:4 n-6 (AA), ham",0.8% SDA feed,3.12 g FA per 100 g fat
same,"20:5 n-3 (EPA), ham",0.8% SDA feed,0.87 g FA per 100 g fat
same,"22:0, ham",0.8% SDA feed,0.10 g FA per 100 g fat
same,"22:1 n-9, ham",0.8% SDA feed,0.00 g FA per 100 g fat
same,"22:1 n-11, ham",0.8% SDA feed,0.00 g FA per 100 g fat
same,"22:1 n-13, ham",0.8% SDA feed,0.00 g FA per 100 g fat
same,"22:2 n-7, ham",0.8% SDA feed,0.00 g FA per 100 g fat
